According to patent US8415469B2, “Compounds and methods for kinase modulation, and indications therefor” (Plexxikon Inc., priority 2005, dated 2013):
Read-outs that look alike come from different tables or passages of the source.

Key:
Assay type in all cases: biochemical
Met = target: T1, Met (Homo sapiens, UniProt P08581); assay: AlphaScreen kinase assay, Met; settings: read-out: IC50, activity toward kinase Met
T1 construct: P1818.pETN6 BI-PTP MET G1056-G1364-X WT; His6 (N); made in house; host or cells: E. coli (PTP1B co-expressed)
Source text: (§1) AlphaScreen assay was used to screen additional kinases. The assay is similarly dependent on the phosphorylation of a peptide substrate. In this assay, an antibody that recognizes phosphorylated substrate is bound to an acceptor bead. The peptide substrate is attached to biotin, which binds to a donor head that contains streptavidin. Thus phosphorylated substrate is bound by antibody and streptavidin, bringing the donor and acceptor heads into close proximity when kinase is not inhibited. The donor produces singlet oxygen which results in emission from the acceptor when they are in close proximity. Conversely, when kinase is inhibited, the donor and acceptor beads are not associated and the emission from the acceptor is reduced.
(§2) AlphaScreen assays were done using compounds dissolved in DMSO to a concentration of 20 mM. The compounds were diluted accordingly to the desired final concentrations in each sample well, using 1:3 serial dilution for a total of 8 concentration points.

Abl = target: T2, Abl (Homo sapiens, UniProt P00519); assay: AlphaScreen kinase assay, Abl; settings: read-out: activity toward kinase Abl, IC50
T2 construct: P1121. pET-SPEC BI-PTP Abl G227-V515-X; His6 (N); made in house; host or cells: E. coli (PTP1B co-expressed)
T2 sequence (P00519 with tags, fused parts or gaps): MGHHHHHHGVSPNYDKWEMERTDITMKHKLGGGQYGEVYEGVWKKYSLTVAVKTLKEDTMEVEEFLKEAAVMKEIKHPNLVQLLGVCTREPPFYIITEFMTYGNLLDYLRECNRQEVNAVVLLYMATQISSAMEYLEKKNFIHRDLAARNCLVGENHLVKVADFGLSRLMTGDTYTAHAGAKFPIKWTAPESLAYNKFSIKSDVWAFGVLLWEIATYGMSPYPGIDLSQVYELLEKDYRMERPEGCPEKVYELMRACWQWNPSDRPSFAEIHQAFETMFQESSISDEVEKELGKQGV
Source text: as §1, §2

B-Raf V600E = target: T3, B-Raf V600E (Homo sapiens, UniProt P15056, V600E); assay: AlphaScreen kinase assay, B-Raf V600E
T3 construct: P4254. pFastBacBD-CDC37 BRAF D437-K722-X, V600E; His6 with pFastBac HT leader (TEV site) (N); made in house; host or cells: Sf9 (baculovirus; chaperone CDC37 co-expressed)

Jnk3 = target: T4, Jnk3 (Homo sapiens, UniProt P53779); assay: AlphaScreen kinase assay, Jnk3; settings: read-out: IC50, activity toward kinase Jnk3
T4 construct: purchased Upstate Biotechnology

Zap70 = target: T5, Zap70 (Homo sapiens, UniProt P43403); assay: AlphaScreen kinase assay, Zap70; settings: read-out: IC50, activity toward kinase Zap70
T5 construct: P1868.pFastBac1 ZAP70 D327-G606 HIS, WT; His7 (HHHHHHH) (C); made in house
T5 sequence (P43403 with tags, fused parts or gaps): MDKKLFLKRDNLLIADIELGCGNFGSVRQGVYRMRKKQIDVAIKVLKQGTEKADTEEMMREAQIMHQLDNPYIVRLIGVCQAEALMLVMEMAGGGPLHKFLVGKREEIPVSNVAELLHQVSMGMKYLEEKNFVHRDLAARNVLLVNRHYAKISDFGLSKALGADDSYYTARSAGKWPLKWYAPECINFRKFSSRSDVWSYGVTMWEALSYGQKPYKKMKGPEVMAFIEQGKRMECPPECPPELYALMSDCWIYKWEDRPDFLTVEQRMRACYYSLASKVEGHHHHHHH
Summary of the method: (§3)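 Here, phosphorylation of a biotin-tagged peptide was sensed by proximity of streptavidin donor and antibody-bearing acceptor beads. Test compounds covered 8 concentrations by 1:3 serial dilution of 20 mM DMSO stocks.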

Flt1 = target: T6, Flt1 (Homo sapiens, UniProt P17948); assay: AlphaScreen kinase assay, Flt1; settings: read-out: IC50, activity toward kinase Flt1
T6 construct: P1826.pETN6 BI-PTP FLT1 M799-D1165-X WT; His6 (N); made in house; host or cells: E. coli (PTP1B co-expressed)
T6 sequence (P17948 with tags, fused parts or gaps): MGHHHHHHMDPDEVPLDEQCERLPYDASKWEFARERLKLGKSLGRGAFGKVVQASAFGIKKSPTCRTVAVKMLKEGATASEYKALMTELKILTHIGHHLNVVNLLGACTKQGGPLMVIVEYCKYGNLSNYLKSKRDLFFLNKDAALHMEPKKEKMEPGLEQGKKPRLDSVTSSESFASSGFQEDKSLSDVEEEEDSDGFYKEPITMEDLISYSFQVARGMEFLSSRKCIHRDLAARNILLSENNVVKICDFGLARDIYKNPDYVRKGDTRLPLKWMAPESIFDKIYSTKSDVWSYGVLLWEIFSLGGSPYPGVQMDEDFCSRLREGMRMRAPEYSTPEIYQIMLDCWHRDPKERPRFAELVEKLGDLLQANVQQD

Fms = target: T7, Fms (Homo sapiens, UniProt P07333); assay: AlphaScreen kinase assay, Fms; settings: read-out: IC50, activity toward kinase Fms
T7 construct: purchased Upstate Biotechnology

Akt3 = Akt3 (Homo sapiens, UniProt Q9Y243); assay: AlphaScreen kinase assay, Akt3; settings: read-out: IC50, activity toward kinase Akt3
Source text: as §1, §2

Kit = target: T8, Kit (Homo sapiens, UniProt P10721); assay: AlphaScreen kinase assay, Kit; settings: read-out: IC50, activity toward kinase Kit
T8 construct: P1332.N6 BI PTP KIT M552-K948-X COD; His6 (N); made in house; host or cells: E. coli (PTP1B co-expressed)

B-Raf = target: T9, B-Raf (Homo sapiens, UniProt P15056); assay: AlphaScreen kinase assay, B-Raf
T9 construct: purchased Upstate Biotechnology

FGFR1 = target: T10, FGFR1 (Homo sapiens, UniProt P11362, C488A/C584S); assay: AlphaScreen kinase assay, FGFR1; settings: read-out: IC50, activity toward kinase FGFR
T10 construct: P1351.pET N6 BI-PTP FGFR A458-E765-X C488A, C584S; made in house; host or cells: E. coli (PTP1B co-expressed)

c-Raf-1 = target: T11, c-Raf-1 (Homo sapiens, UniProt P04049); assay: AlphaScreen kinase assay, c-Raf-1; settings: read-out: IC50, activity toward kinase c-Raf-1
T11 construct: purchased Upstate Biotechnology

Src = target: T12, Src (Homo sapiens, UniProt P12931); assay: AlphaScreen kinase assay, Src; settings: read-out: IC50, activity toward kinase Src
T12 construct: P1144. pET-N6 BI-PTP SRC V86-L536-X; made in house

Fak = target: T13, Fak (Homo sapiens, UniProt Q05397); assay: AlphaScreen kinase assay, Fak; settings: read-out: IC50, activity toward kinase Fak
T13 construct: P1358.pFastBacHtb FAK S411-Q686-X; His6 with pFastBacHTb leader (TEV site) (N); made in house; host or cells: Sf9 (baculovirus)

Jnk1 = target: T14, Jnk1 (Homo sapiens, UniProt P45983); assay: AlphaScreen kinase assay, Jnk1; settings: read-out: IC50, activity toward kinase Jnk1
T14 construct: purchased Upstate Biotechnology

Ret = target: T15, Ret (Homo sapiens, UniProt P07949); assay: AlphaScreen kinase assay, Ret; settings: read-out: IC50, activity toward kinase Ret
T15 construct: P1378.pET-SF BI-PTP RET H661-R1012 HIS; made in house
T15 sequence (P07949 with tags, fused parts or gaps): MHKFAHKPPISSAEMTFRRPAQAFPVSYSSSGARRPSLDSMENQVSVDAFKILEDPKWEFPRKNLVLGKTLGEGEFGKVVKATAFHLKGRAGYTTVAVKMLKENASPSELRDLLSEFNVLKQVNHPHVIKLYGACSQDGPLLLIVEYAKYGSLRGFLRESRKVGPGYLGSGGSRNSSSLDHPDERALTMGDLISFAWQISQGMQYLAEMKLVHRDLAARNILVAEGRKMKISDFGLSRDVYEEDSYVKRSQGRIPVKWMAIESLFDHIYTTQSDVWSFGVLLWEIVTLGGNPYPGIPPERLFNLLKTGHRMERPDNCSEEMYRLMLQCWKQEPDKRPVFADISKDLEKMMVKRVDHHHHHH

Kdr = target: T16, Kdr (Homo sapiens, UniProt P35968); assay: Z'-Lyte FRET kinase assay (Invitrogen), Kdr; settings: read-out: IC50, activity toward kinase Kdr
T16 construct: purchased Invitrogen (assay run by Invitrogen)

Pyk2 = target: T17, Pyk2 (Homo sapiens, UniProt Q14289); assay: AlphaScreen kinase assay, Pyk2; settings: read-out: IC50, activity toward kinase Pyk2
T17 construct: purchased Upstate Biotechnology

Stk6 = target: T18, Stk6 (Homo sapiens, UniProt O14965); assay: Z'-Lyte FRET kinase assay (Invitrogen), Stk6; settings: read-out: IC50, activity toward kinase Stk6
T18 construct: purchased Invitrogen (Carlsbad, Calif.), screening service
T18 sequence (O14965 1-403): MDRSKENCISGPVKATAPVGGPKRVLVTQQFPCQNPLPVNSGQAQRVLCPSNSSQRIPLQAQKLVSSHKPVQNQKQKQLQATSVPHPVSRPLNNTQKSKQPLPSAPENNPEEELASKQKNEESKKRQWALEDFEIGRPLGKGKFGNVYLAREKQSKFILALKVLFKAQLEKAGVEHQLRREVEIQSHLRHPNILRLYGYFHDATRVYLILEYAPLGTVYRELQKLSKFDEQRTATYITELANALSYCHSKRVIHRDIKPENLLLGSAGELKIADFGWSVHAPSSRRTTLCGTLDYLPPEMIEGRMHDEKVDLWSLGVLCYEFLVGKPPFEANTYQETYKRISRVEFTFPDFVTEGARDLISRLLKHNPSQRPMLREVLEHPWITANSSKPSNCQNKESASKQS

Jnk2 = target: T19, Jnk2 (Homo sapiens, UniProt P45984); assay: AlphaScreen kinase assay, Jnk2; settings: read-out: IC50, activity toward kinase Jnk2
T19 construct: purchased Roche Protein Expression Group (Indianapolis, IN)
Summary of the method: as §3

[1] = read-out: IC50, activity toward kinase B-Raf V600E

T1 sequence (P08581 with tags, fused parts or gaps): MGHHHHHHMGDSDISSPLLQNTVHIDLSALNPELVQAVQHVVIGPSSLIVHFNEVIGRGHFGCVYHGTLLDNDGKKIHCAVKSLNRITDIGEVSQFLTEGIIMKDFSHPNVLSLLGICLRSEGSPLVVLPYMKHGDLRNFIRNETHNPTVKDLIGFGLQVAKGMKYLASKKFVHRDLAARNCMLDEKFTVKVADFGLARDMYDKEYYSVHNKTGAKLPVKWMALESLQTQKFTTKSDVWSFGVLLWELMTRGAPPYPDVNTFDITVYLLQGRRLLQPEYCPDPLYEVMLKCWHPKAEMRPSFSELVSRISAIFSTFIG
T10 sequence (P11362 458-765 C488A/C584S): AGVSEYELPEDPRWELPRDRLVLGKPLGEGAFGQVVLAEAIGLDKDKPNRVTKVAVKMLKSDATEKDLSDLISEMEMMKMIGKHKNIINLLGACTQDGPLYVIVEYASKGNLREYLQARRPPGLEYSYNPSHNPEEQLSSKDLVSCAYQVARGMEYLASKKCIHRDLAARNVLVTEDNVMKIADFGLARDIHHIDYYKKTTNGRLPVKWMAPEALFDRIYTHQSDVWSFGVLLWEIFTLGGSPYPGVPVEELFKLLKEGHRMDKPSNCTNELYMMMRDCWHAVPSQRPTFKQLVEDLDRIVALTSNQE
T3 sequence (P15056 with tags, fused parts or gaps V600E): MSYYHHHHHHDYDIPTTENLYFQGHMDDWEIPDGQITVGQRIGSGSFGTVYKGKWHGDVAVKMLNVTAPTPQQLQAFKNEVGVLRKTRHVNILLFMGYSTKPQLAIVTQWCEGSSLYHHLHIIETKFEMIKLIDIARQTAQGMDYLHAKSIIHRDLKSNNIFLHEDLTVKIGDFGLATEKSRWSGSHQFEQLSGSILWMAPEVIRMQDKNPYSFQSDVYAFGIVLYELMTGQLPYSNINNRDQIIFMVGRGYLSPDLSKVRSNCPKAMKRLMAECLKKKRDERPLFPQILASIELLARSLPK
T4 sequence (P53779 whole entry): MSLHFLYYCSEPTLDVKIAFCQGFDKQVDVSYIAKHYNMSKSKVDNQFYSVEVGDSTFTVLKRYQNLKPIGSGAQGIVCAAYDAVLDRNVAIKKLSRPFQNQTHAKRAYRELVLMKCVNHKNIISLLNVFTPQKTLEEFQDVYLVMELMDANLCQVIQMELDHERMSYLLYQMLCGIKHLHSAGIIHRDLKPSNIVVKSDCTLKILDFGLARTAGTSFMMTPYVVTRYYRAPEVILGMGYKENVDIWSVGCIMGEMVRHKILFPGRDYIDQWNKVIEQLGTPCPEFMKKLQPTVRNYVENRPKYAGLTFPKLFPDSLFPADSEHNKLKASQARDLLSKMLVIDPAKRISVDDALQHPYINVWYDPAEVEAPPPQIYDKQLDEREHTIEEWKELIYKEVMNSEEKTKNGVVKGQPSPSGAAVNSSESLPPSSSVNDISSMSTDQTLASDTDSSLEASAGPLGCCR
T16 sequence (P35968 20-1356): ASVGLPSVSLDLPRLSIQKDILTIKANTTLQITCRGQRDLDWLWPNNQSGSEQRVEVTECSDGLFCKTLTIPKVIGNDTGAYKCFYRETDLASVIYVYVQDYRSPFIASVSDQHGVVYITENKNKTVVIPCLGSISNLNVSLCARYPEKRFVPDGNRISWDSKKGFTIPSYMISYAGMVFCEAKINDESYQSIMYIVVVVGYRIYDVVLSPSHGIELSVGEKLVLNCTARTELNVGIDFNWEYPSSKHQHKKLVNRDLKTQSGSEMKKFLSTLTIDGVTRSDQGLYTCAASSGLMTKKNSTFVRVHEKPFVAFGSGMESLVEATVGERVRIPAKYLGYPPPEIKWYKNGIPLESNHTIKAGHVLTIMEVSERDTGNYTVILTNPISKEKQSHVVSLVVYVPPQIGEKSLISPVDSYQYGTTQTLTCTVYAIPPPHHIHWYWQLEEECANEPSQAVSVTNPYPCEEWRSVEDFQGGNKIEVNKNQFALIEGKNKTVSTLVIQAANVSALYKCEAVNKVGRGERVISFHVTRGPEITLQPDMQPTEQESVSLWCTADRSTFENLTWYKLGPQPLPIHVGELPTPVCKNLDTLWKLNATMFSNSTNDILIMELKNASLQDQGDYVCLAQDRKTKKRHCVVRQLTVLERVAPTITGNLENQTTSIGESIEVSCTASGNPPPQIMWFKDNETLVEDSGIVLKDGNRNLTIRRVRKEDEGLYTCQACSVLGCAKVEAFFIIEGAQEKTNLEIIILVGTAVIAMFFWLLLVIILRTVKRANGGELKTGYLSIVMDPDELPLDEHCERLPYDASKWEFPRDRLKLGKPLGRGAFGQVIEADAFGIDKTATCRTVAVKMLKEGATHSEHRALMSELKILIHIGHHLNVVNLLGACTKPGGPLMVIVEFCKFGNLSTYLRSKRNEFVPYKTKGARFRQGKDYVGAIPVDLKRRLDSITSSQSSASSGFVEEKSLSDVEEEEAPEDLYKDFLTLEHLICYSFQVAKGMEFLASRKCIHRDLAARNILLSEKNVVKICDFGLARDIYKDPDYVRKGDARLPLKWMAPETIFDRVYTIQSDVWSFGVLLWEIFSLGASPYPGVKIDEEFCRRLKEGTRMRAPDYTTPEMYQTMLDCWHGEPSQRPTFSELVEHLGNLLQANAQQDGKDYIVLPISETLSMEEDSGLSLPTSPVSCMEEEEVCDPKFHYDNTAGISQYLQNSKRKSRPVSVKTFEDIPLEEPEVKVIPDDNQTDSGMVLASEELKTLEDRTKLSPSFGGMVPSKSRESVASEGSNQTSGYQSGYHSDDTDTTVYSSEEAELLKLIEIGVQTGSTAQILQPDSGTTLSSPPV
T14 sequence (P45983 whole entry): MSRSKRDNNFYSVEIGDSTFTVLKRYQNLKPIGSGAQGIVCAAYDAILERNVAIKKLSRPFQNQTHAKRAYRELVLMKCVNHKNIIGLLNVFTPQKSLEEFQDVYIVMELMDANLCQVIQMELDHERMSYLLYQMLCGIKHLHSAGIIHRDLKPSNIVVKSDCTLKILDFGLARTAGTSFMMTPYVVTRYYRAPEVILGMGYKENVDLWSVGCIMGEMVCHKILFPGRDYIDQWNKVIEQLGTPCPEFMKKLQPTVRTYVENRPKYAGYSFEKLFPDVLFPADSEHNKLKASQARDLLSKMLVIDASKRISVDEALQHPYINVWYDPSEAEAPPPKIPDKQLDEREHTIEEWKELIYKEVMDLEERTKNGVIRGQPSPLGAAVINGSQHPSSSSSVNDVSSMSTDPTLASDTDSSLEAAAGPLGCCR
T13 sequence (Q05397 411-686): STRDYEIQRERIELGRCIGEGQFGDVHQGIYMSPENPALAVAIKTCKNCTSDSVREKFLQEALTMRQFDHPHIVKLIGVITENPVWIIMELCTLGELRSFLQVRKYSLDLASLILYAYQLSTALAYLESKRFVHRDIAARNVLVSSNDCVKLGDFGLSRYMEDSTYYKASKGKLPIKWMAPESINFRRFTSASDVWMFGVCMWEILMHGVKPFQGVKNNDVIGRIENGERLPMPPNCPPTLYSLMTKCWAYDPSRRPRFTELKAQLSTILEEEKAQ
T8 sequence (P10721 with tags, fused parts or gaps): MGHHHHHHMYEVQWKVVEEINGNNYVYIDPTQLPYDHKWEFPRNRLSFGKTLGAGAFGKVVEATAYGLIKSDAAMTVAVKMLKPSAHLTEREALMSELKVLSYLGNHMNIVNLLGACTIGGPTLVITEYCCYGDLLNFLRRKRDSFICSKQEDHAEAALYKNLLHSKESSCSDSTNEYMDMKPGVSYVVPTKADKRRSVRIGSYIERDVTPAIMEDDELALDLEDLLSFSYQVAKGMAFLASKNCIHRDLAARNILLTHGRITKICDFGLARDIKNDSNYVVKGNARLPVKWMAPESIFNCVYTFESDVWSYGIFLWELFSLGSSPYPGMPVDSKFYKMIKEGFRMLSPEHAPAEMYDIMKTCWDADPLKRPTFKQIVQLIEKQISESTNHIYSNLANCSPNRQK
T12 sequence (P12931 with tags, fused parts or gaps): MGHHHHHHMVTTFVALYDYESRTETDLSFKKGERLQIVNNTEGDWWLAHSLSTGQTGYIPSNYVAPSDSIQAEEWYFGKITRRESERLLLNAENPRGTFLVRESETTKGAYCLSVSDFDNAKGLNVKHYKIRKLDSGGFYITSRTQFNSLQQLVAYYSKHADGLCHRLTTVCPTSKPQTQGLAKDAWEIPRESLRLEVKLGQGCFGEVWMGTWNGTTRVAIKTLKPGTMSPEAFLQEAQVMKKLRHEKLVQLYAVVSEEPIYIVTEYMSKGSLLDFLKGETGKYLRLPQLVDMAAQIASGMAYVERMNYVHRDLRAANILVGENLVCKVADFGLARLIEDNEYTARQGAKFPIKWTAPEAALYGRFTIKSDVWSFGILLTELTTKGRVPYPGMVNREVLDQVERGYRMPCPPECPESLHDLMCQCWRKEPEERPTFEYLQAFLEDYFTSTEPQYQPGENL
T19 sequence (P45984 whole entry): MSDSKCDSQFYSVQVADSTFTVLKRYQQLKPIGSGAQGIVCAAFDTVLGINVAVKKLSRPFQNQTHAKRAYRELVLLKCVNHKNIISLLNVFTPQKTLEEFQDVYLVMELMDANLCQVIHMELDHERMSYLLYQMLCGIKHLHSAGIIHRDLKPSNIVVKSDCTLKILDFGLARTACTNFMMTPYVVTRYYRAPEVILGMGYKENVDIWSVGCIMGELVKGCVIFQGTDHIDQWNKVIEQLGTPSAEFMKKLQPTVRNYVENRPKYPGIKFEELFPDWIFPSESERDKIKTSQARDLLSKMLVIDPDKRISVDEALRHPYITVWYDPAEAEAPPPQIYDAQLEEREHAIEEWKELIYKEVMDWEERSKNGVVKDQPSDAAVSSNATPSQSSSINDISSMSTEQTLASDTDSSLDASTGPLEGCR

IC50 (Met) [µM]	IC50 (Abl) [µM]	IC50 (B-Raf V600E; [1]) [µM]	IC50 (Jnk3) [µM]	IC50 (Zap70) [µM]	IC50 (Flt1) [µM]	IC50 (Kit) [µM]	IC50 (FGFR1) [µM]	IC50 (Src) [µM]	IC50 (Fak) [µM]	IC50 (Jnk1) [µM]	IC50 (Ret) [µM]	IC50 (Kdr) [µM]	Compound	also measured
≤ 10	≤ 10	–	–	–	–	–	–	–	–	–	–	–	S=C(NCc1ccncc1)NCc1c[nH]c2ncccc12 [Compound P-0781]	–
≤ 10	≤ 10	–	≤ 10	≤ 10	–	–	–	–	≤ 10	–	≤ 10	–	CS(=O)(=O)CCNC(=O)c1ccc(S(=O)(=O)NCc2c[nH]c3ncccc23)cc1 [Compound P-0675]	–
≤ 10	≤ 10	–	–	–	–	–	–	–	–	–	–	–	S=C(NCc1cccnc1)NCc1c[nH]c2ncccc12 [Compound P-1012]	–

More lines, now with the values behind:

Compound	IC50 (Met) [µM]	IC50 (Abl) [µM]	IC50 (B-Raf V600E; [1]) [µM]	IC50 (Jnk3) [µM]	IC50 (Zap70) [µM]	IC50 (Flt1) [µM]	IC50 (Kit) [µM]	IC50 (FGFR1) [µM]	IC50 (Src) [µM]	IC50 (Fak) [µM]	IC50 (Jnk1) [µM]	IC50 (Ret) [µM]	IC50 (Kdr) [µM]	also measured
NC(=O)c1cccc(-c2cnc3[nH]cc(C(=O)c4cc(O)ccc4F)c3c2)c1 [Compound P-0037, 3-[3-(2-Fluoro-5-hydroxy-benzoyl)-1H-pyrrolo[2,3-b]pyridin-5-yl]-benzamide]	≤ 10	–	≤ 10	≤ 10	≤ 10	≤ 10	≤ 10	≤ 10	≤ 10	≤ 10	≤ 10	≤ 10	–	IC50 (Fms): ≤ 10 µM; IC50 (Akt3): ≤ 10 µM; IC50 (B-Raf; read-out: IC50, activity toward kinase B-Raf): ≤ 10 µM; IC50 (c-Raf-1): ≤ 10 µM
O=S(=O)(NCc1c[nH]c2ncccc12)c1ccsc1 [Compound P-0320]	≤ 10	≤ 10	≤ 10	≤ 10	≤ 10	≤ 10	–	≤ 10	≤ 10	–	–	≤ 10	≤ 10	IC50 (Pyk2): ≤ 10 µM
COc1cccc(Cc2c[nH]c3ncc(-c4ccc(N)cc4)cc23)c1 [Compound P-0140]	≤ 10	≤ 10	–	–	–	–	≤ 10	≤ 10	–	–	≤ 10	≤ 10	≤ 10	IC50 (B-Raf V600E): ≤ 10 µM; IC50 (B-Raf): ≤ 10 µM; IC50 (Stk6): ≤ 10 µM; IC50 (Jnk2): ≤ 10 µM
